According to patent publication US10947242B2, “[1,2,4]triazolo[1,5and#8208;A]pyrimidine compounds as PDE2 inhibitors” (Janssen Pharmaceutica NV, priority 2016, dated 2021):
Where two headings read alike, the source gives them in different places.

Key:
[1] = biological target: T1, Human recombinant PDE10A (hPDE10A) (Homo sapiens, UniProt Q9Y233); assay: In vitro assay PDE10A, human clone (SPA, 3H-cAMP hydrolysis); format: biochemical
T1 construct: His tag (inferred from metal chelate purification); made in house; host or cells: Sf9 insect cells (baculovirus)
How it was run: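 Human recombinant PDE10A was expressed in Sf9 cells via baculovirus and incubated with compound in 50 mM Tris pH 7.8, 8.3 mM MgCl2, 1.7 mM EGTA. Substrate was 60 nM cAMP plus 0.008 μCi 3H-cAMP for 60 min at room temperature, read by SPA scintillation counting. Controls used 1% DMSO, and blanks omitted enzyme.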

PDE2A = biological target: T2, PDE2A (Rattus norvegicus, UniProt Q01062); assay: PDE2 occupancy by test compounds, ex-vivo autoradiography with [3H]B-17a; format: in vivo, Male Wistar rats; conditions: for ED50: read-out: PDE Occupancy ED50
T2 construct: Twenty μm-thick striatal sections were cut; from tissue; host or cells: rat brain, striatal sections
T2 sequence (Q01062 1-928): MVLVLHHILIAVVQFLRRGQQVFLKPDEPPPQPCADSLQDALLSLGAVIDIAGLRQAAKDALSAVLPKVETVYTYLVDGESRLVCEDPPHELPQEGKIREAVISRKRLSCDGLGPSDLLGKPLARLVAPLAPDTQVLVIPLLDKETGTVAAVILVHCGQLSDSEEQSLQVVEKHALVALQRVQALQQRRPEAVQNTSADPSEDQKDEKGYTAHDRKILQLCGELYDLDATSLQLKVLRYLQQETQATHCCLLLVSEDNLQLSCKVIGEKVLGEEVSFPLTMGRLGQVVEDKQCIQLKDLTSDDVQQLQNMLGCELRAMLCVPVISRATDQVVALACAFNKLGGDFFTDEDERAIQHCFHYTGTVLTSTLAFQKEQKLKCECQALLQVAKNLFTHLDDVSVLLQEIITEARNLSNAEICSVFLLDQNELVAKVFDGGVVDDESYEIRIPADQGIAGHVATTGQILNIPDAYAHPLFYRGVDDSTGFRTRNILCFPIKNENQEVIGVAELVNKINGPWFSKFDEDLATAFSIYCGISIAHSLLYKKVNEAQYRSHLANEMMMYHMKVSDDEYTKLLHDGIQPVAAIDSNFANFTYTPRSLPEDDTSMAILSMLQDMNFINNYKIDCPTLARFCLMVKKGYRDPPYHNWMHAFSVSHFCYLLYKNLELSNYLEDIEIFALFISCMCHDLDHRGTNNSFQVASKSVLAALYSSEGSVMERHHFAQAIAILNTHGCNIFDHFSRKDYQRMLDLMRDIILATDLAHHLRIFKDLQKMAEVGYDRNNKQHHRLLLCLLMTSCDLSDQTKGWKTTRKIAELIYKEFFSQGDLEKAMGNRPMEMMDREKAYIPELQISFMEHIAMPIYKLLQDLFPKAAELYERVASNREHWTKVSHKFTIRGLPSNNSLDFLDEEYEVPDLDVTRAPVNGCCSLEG

[2] = biological target: T3, Human recombinant PDE2A (hPDE2A) (Homo sapiens, UniProt O00408); assay: In vitro assay PDE2A (SPA, 3H-cGMP hydrolysis); format: biochemical; conditions: for Emax: read-out: hPDE2A Emax
T3 construct: His tag (inferred from metal chelate purification); made in house; host or cells: Sf9 insect cells (baculovirus)

[3] = biological target: T4, Human recombinant PDE3A (hPDE3A) (Homo sapiens, UniProt Q14432); assay: In vitro assay PDE3A (SPA, 3H-cAMP hydrolysis); format: biochemical; conditions: for IC50: hPDE3B pIC50; for Emax: read-out: hPDE3B Emax;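 as to Emax: the method names PDE3A and the table heading PDE3B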
T4 construct: purchased Scottish Biomedical; host or cells: Sf9 insect cells
How it was run: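 Human PDE3A, cloned from brain, as partially purified Sf9 lysate. Substrate 0.4 μM cAMP plus [3H]-cAMP (2.4 μCi/ml final) in 50 mM Tris pH 7.8, 8.3 mM MgCl2, 1.7 mM EGTA, 60 min at room temperature, 1% DMSO final. Hydrolysis read by SPA scintillation counting against no-enzyme blanks and DMSO controls.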

[4] = human clone (h), default, read-out: hPDE10A2 Emax
[5] = human clone (h), default, read-out: hPDE10A2 pIC50 (converted)
[6] = po, 10 mg/kg, route PO (oral), percentage receptor occupancy, ex-vivo autoradiography, striatum
[7] = hPDE2A pIC50, human recombinant PDE2A, 10 μM cGMP substrate
[8] = 10 mg/kg, route PO (oral), percentage receptor occupancy, ex-vivo autoradiography, striatum
[9] = human clone by default (no (r) mark), read-out: hPDE10A2 or rPDE10A2 Emax
[10] = human clone by default (no (r) mark), read-out: hPDE10A2 or rPDE10A2 pIC50 (converted)
[11] = sc, 10 mg/kg, route SC (subcutaneous), percentage receptor occupancy, ex-vivo autoradiography, striatum
[12] = human recombinant PDE2A, 10 μM cGMP substrate, read-out: hPDE2A pIC50 (converted)
[13] = read-out: hPDE2A pIC50 (converted)

T3 sequence (O00408 whole entry): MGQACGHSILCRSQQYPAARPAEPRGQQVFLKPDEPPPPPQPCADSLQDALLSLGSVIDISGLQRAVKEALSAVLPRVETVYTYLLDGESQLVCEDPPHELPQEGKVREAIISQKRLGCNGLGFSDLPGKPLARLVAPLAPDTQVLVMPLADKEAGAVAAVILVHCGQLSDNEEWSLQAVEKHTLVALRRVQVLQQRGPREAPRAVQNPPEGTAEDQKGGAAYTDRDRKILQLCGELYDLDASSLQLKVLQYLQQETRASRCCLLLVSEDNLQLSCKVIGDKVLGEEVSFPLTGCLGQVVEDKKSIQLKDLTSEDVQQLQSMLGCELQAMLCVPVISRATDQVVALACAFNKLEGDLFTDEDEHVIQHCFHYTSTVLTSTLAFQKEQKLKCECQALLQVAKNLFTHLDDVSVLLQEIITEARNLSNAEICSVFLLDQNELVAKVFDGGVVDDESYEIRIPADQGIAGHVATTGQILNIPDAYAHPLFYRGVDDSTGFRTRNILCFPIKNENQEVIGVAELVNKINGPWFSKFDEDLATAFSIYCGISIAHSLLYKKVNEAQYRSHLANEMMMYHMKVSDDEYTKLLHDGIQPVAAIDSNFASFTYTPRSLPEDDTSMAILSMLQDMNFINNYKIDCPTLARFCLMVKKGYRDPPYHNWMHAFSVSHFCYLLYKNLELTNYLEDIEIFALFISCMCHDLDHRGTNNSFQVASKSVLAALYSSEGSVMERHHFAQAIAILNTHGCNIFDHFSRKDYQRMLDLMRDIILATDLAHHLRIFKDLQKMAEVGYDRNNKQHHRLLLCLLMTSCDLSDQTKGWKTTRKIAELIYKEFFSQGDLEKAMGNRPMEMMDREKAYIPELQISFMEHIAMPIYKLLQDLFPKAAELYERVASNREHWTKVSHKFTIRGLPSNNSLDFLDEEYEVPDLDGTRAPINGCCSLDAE
T1 sequence (Q9Y233 267-1055): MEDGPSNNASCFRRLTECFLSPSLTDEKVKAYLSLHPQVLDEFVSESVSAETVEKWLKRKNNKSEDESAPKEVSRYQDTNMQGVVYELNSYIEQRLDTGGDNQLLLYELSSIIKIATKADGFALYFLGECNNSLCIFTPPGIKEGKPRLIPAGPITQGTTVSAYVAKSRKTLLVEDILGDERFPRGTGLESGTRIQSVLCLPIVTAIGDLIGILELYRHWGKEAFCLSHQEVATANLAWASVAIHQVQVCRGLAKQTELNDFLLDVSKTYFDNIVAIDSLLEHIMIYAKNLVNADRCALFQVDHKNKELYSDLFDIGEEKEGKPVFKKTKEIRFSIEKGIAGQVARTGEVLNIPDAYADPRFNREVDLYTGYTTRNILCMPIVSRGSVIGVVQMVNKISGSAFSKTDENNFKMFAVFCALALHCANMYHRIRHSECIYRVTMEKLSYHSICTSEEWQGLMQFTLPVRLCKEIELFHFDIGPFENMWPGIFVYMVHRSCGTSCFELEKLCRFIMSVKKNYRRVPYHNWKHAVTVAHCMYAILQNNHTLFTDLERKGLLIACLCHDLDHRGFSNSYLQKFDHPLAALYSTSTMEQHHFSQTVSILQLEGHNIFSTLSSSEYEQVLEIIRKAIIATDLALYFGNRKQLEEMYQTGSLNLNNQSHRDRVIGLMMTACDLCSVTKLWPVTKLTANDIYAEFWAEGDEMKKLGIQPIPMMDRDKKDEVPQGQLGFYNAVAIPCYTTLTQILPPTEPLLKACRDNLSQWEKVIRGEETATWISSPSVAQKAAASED
T4 sequence (Q14432 whole entry): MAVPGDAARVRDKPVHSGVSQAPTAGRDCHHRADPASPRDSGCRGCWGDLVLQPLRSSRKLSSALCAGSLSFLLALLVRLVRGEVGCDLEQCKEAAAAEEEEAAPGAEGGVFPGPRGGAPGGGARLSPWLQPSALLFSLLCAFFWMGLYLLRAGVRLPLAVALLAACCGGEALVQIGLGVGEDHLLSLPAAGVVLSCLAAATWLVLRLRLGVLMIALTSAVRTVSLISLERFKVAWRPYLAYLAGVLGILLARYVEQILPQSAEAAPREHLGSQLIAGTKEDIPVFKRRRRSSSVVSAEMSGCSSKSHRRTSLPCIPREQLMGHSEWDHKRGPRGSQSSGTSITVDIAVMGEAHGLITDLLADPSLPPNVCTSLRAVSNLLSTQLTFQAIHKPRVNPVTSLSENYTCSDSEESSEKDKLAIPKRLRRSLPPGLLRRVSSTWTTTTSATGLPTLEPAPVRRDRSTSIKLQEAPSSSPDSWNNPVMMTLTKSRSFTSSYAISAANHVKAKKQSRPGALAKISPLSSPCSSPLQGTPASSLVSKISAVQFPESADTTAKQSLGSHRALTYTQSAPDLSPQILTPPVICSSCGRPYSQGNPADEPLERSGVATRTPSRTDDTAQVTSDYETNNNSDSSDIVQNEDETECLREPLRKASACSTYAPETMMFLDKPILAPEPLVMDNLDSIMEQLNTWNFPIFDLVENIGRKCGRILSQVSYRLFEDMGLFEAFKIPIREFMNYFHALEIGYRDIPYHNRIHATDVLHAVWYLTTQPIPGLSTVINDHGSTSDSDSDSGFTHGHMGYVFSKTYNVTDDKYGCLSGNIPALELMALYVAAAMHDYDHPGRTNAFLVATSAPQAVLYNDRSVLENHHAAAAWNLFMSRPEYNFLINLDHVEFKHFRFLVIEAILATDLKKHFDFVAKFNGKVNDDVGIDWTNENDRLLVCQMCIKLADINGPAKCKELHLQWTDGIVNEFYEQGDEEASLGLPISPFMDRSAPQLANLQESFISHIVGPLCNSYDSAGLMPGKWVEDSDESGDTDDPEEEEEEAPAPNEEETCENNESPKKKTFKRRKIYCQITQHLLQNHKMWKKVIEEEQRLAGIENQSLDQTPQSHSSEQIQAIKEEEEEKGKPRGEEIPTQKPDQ

| Compound | Emax [1, 4] | IC50 [1, 5] | receptor occupancy at 10 mg/kg (PDE2A; [6]) | Emax [2] | IC50 ([3]; read-out: pIC50 (converted)) | Emax ([3]; read-out: Emax) | Emax [1, 9] | IC50 [1, 10] | IC50 [2, 12] | Emax ([2]; human recombinant PDE2A) | IC50 [2, 13] | receptor occupancy at 10 mg/kg (PDE2A; [8]) | also measured |
| --- | --- | --- | --- | --- | --- | --- | --- | --- | --- | --- | --- | --- | --- |
| C[C@@H]1CCN(C(=O)c2cc(F)cc(C#N)c2)C[C@H]1c1cc(C(F)F)nc2ncnn12 [Compound 190] | 96% | 0.158 µM | 1% | 100% | > 10 µM | 39% | – | – | – | – | – | – | IC50 ([2]; hPDE2A pIC50): 0.0102 µM; IC50 [2, 7]: 0.0102 µM |
| O=C(c1ccc2ncsc2c1)N1[C@H]2CC[C@@H]1[C@H](c1cc(C(F)F)nc3ncnn13)CC2 [Compound 25b] | – | – | – | – | – | – | – | – | – | – | – | – | hPDE10A2 Emax ([1]; human clone (h), default): 28; hPDE10A2 pIC50 ([1]; human clone (h), default): <5; PDE2 Occupancy at 10 mg/kg (PDE2A; [8]): −9; hPDE2A Emax [2]: 92; hPDE2A pIC50 [2]: 5.96; hPDE2A Emax ([2]; human recombinant PDE2A): 92; hPDE2A pIC50 ([2]; human recombinant PDE2A, 10 μM cGMP substrate): 5.96; hPDE3B Emax [3]: 37 |
| Cc1cc(C(=O)N2CC[C@H](C)[C@@H](c3cc(C(F)F)nc4ncnn34)C2)cc(C)n1 [Compound 220] | – | – | -8% | – | > 10 µM | – | 41% | > 10 µM | – | – | – | – | ED50 (PDE2A; po): > 80 mg/kg; hPDE2A Emax [2]: 54; IC50 ([2]; hPDE2A pIC50): 0.302 µM; Emax [3]: 8% |
| Cc1c(C(=O)N2CC[C@@H](C)[C@H](c3cc(C(F)F)nc4ncnn34)C2)oc2ccccc12 [Compound 48] | 100% | 0.0437 µM | – | 100% | 0.0871 µM | 99% | – | – | 0.000174 µM | 100% | 0.000174 µM | – | receptor occupancy at 10 mg/kg (PDE2A; [11]): 96% |
| C[C@@H]1CCN(C(=O)c2ccn(C)n2)C[C@H]1c1cc(C(F)F)nc2ncnn12 [Compound 139] | 78% | 2.4 µM | -11% | 99% | > 10 µM | 20% | – | – | 0.0288 µM | 99% | 0.0288 µM | – | – |
| Cc1cc(C(=O)N2CC[C@@H](C)[C@H](c3cc(C)nc4ncnn34)C2)cc(OC(F)F)n1 [Compound 275] | – | – | 23% | 100% | 0.977 µM | 92% | 100% | 0.0288 µM | – | – | 0.00282 µM | – | – |
| Cc1cc(C(=O)N2[C@H]3CC[C@H](c4cc(C(F)F)nc5ncnn45)[C@@H]2CC3)cc(C(F)(F)F)n1 [Compound 286] | – | – | – | 101% | > 10 µM | 14% | 79% | 2.24 µM | – | – | 0.00692 µM | 5% | – |
| Cc1cc(C(=O)N2[C@H]3CC[C@H](c4cc(C(F)F)nc5ncnn45)[C@@H]2CC3)cc(C(F)F)n1 [Compound 294] | – | – | – | 99% | > 10 µM | 14% | 81% | 2.09 µM | – | – | 0.0107 µM | 17% | – |
| C[C@@H]1CCN(C(=O)c2ccc(F)c(OC(F)F)c2)C[C@H]1c1cc(C(F)F)nc2ncnn12 [Compound 193] | 98% | 0.138 µM | -11% | 100% | 3.47 µM | 76% | – | – | 0.00589 µM | 100% | 0.00589 µM | – | receptor occupancy at 10 mg/kg (PDE2A; [11]): -3% |
| O=C(c1ccc2cnccc2c1)N1[C@H]2CC[C@H](c3cc(C(F)F)nc4ncnn34)[C@@H]1CC2 [Compound 314] | – | – | – | 100% | 3.55 µM | 73% | 91% | 0.933 µM | – | – | 0.00575 µM | 5% | – |
| C[C@@H]1CCN(C(=O)c2cc(Cl)ncc2Cl)C[C@H]1c1cc(C(F)F)nc2ncnn12 [Compound 43] | 88% | 1.32 µM | 2% | 99% | > 10 µM | 29% | – | – | 0.00501 µM | 99% | 0.00501 µM | – | – |
| Cc1cc(C(=O)N2CC[C@@H](C)[C@H](c3cc(C(F)F)nc4ncnn34)C2)c(C)cn1 [Compound 32] | 81% | 1.45 µM | -6% | 100% | > 10 µM | 31% | – | – | 0.00347 µM | 100% | 0.00347 µM | – | – |
| Cc1cc(C(=O)N2CC[C@@H](C)[C@](F)(c3cc(C(F)F)nc4ncnn34)C2)cc(C)n1 [Compound 82] | 18% | > 10 µM | 28% | 101% | > 10 µM | 9% | – | – | 0.0339 µM | 101% | 0.0339 µM | – | – |
| O=C(c1cnc2ccccc2c1)N1[C@H]2CC[C@H](c3cc(C(F)F)nc4ncnn34)[C@@H]1CC2 [Compound 313] | – | – | – | 97% | 6.03 µM | 61% | 86% | 1.23 µM | – | – | 0.00135 µM | 28% | – |
| Cc1cc(C(=O)N2CC[C@@H](C)[C@H](c3cc(C(F)F)nc4ncnn34)C2)cc(Cl)n1 [Compound 83] | 98% | 0.0977 µM | 82% | 100% | 7.94 µM | 58% | – | – | – | – | – | – | IC50 ([2]; hPDE2A pIC50): 0.000933 µM; IC50 [2, 7]: 0.000933 µM |
| COc1cccc2c1OCC(C(=O)N1[C@H]3CC[C@H](c4cc(C(F)F)nc5ncnn45)[C@@H]1CC3)=C2 [Compound 296] | – | – | – | 99% | 0.794 µM | 93% | 100% | 0.12 µM | – | – | 0.000457 µM | 88% | – |
| Cc1nccc(C(=O)N2CC[C@@H](C)[C@H](c3cc(C(F)F)nc4ncnn34)C2)c1F [Compound 68] | 85% | 1.38 µM | – | 99% | – | 50% | – | – | 0.00631 µM | 99% | 0.00631 µM | – | receptor occupancy at 10 mg/kg (PDE2A; [11]): 31% |
| O=C(c1ccc2ccccc2n1)N1[C@H]2CC[C@H](c3cc(C(F)F)nc4ncnn34)[C@@H]1CC2 [Compound 308] | – | – | – | 98% | – | 72% | 66% | – | – | – | – | 18% | IC50 ([1]; hPDE10A2 or rPDE10A2 pIC50, human clone by default (no (r) mark)): 6.76 µM; IC50 ([2]; hPDE2A pIC50): 0.0174 µM; IC50 [3]: 4.57 µM |
| O=C(c1cnc2c(F)cccc2c1)N1[C@H]2CC[C@H](c3cc(C(F)F)nc4ncnn34)[C@@H]1CC2 [Compound 309] | – | – | – | 100% | 7.59 µM | 53% | 86% | 1.51 µM | – | – | 0.00295 µM | 12% | – |
| COc1cccc2c1OCC(C(=O)N1CC[C@@H](C)[C@H](c3cc(C(F)F)nc4ncnn34)C1)=C2 [Compound 267] | 99% | 0.0112 µM | 59% | 102% | 0.0617 µM | 100% | 99% | 0.0112 µM | – | – | 0.000398 µM | – | ED50 (PDE2A; route PO (oral), drug dose producing 50% receptor occupancy): 11 mg/kg |
